Reference: patent US7709471B2, “Compounds” (AstraZeneca AB, priority 2006, dated 2010)

System: human colon tumour cell line HT29
Experiment: Cellular Assay (phosphohistone H3 Ser10 mitotic marker, HT29)
Assay type: cell-based
Conditions: HT-29, 24 h, HT29 cells, read-out: IC50 (cellular assay, phosphohistone H3)

SMILES | IC50
CN1C(=O)CCN(C2CCCCC2)c2nc(Nc3cc(F)c(C(=O)NCCN4CCCC4)cc3F)ncc21 [Example 416, 4-[(2-cyclohexyl-6-methyl-5-oxo-2,6,9,11-tetrazabicyclo[5.4.0]undeca-7,9,11-trien-10-yl)amino]-2,5-difluoro-N-(2-pyrrolidin-1-ylethyl)benzamide] | < 1000 nM
COc1cc(C(=O)O)ccc1Nc1ncc2c(n1)N(C1CCCC1)CC(C)(C)C(=O)N2C [Example 242, 4-[(2-cyclopentyl-4,4,6-trimethyl-5-oxo-2,6,9,11-tetrazabicyclo[5.4.0]undeca-7,9,11-trien-10-yl)amino]-3-methoxy-benzoic acid] | < 1000 nM
COc1cc(C(=O)NC2C[C@H]3CCC[C@@H](C2)N3C)c(F)cc1Nc1ncc2c(n1)N(C1CCCCC1)CCC(=O)N2C (stereo partly drawn) [Example 427, 4-[(2-cyclohexyl-6-methyl-5-oxo-2,6,9,11-tetrazabicyclo[5.4.0]undeca-7,9,11-trien-10-yl)amino]-2-fluoro-5-methoxy-N-[(1R,5S)-9-methyl-9-azabicyclo[3.3.1]non-7-yl]benzamide] | < 300 nM
CCOc1cc(C(=O)NC2CCN(C)CC2)c(F)cc1Nc1ncc2c(n1)N(C(C)C)CC(C)(C)C(=O)N2C [Example 296, 5-ethoxy-2-fluoro-N-(1-methyl-4-piperidyl)-4-[(4,4,6-trimethyl-5-oxo-2-propan-2-yl-2,6,9,11-tetrazabicyclo[5.4.0]undeca-7,9,11-trien-10-yl)amino]benzamide] | < 30000 nM
CCOc1cc(C(=O)N[C@@H]2CCN(C)C2)c(F)cc1Nc1ncc2c(n1)N(C(C)C)CC(C)(C)C(=O)N2C [Example 297, 5-ethoxy-2-fluoro-N-[(3R)-1-methylpyrrolidin-3-yl]-4-[(4,4,6-trimethyl-5-oxo-2-propan-2-yl-2,6,9,11-tetrazabicyclo[5.4.0]undeca-7,9,11-trien-10-yl)amino]benzamide] | < 30000 nM
COc1cc(C(=O)NC2CCN(C)C3CCCCC23)ccc1Nc1ncc2c(n1)N(C1CCCC1)CCC(=O)N2C (single isomer, unassigned) [Example 342, 4-[(2-cyclopentyl-6-methyl-5-oxo-2,6,9,11-tetrazabicyclo[5.4.0]undeca-7,9,11-trien-10-yl)amino]-3-methoxy-N-(1-methyl-3,4,4a,5,6,7,8,8a-octahydro-2H-quinolin-4-yl)benzamide] | < 300 nM
CCOc1cc(C(=O)NC2CCN(C)CC2)c(F)cc1Nc1ncc2c(n1)N(C(C)C)CCC(=O)N2C [Example 287, 5-ethoxy-2-fluoro-4-[(6-methyl-5-oxo-2-propan-2-yl-2,6,9,11-tetrazabicyclo[5.4.0]undeca-7,9,11-trien-10-yl)amino]-N-(1-methyl-4-piperidyl)benzamide] | < 30000 nM
CN1CCC(NC(=O)c2cc(Cl)c(Nc3ncc4c(n3)N(C3CCCC3)CC3(CC3)C(=O)N4C)cc2F)CC1 [Example 389, 5-chloro-4-(9′-cyclopentyl-5′-methyl-6′-oxo-5′,6′,8′,9′-tetrahydrospiro[cyclopropane-1,7′-pyrimido[5,4-b][1,4]diazepine]-2′-ylamino)-2-fluoro-N-(1-methyl-4-piperidyl)benzamide] | < 300 nM
CCN1CCC(NC(=O)c2cc(OC)c(Nc3ncc4c(n3)N(C(C)C)CC(CC)(CC)C(=O)N4C)cc2F)CC1 [Example 308, 4-[(4,4-diethyl-6-methyl-5-oxo-2-propan-2-yl-2,6,9,11-tetrazabicyclo[5.4.0]undeca-7,9,11-trien-10-yl)amino]-N-(1-ethyl-4-piperidyl)-2-fluoro-5-methoxy-benzamide] | < 300 nM
CCN1CCC(NC(=O)c2cc(OC)c(Nc3ncc4c(n3)N(C3CCCCC3)CCC(=O)N4C)cc2F)CC1 [Example 422, 4-[(2-cyclohexyl-6-methyl-5-oxo-2,6,9,11-tetrazabicyclo[5.4.0]undeca-7,9,11-trien-10-yl)amino]-N-(1-ethyl-4-piperidyl)-2-fluoro-5-methoxy-benzamide] | < 300 nM
CCN1CCC(NC(=O)c2cc(Cl)c(Nc3ncc4c(n3)N(C(C)C)CC(C)(C)C(=O)N4C)cc2F)CC1 [Example 290, 5-chloro-N-(1-ethyl-4-piperidyl)-2-fluoro-4-[(4,4,6-trimethyl-5-oxo-2-propan-2-yl-2,6,9,11-tetrazabicyclo[5.4.0]undeca-7,9,11-trien-10-yl)amino]benzamide] | < 1000 nM
COc1cc(C(=O)N[C@@H]2CCN(C)C2)ccc1Nc1ncc2c(n1)N(C(C)C)CC(C)(C)C(=O)N2C [Example 299, 3-methoxy-N-[(3R)-1-methylpyrrolidin-3-yl]-4-[(4,4,6-trimethyl-5-oxo-2-propan-2-yl-2,6,9,11-tetrazabicyclo[5.4.0]undeca-7,9,11-trien-10-yl)amino]benzamide] | < 300 nM
CN(C)CCNC(=O)c1ccc(Nc2ncc3c(n2)N(C2CCCC2)CC2(CC2)C(=O)N3C)c(Cl)c1 [Example 390, 3-chloro-4-(9′-cyclopentyl-5′-methyl-6′-oxo-5′,6′,8′,9′-tetrahydrospiro[cyclopropane-1,7′-pyrimido[5,4-b][1,4]diazepine]-2′-ylamino)-N-(2-dimethylaminoethyl)benzamide] | < 1000 nM
CN1CCC(NC(=O)c2ccc(Nc3ncc4c(n3)N(C3CCCC3)CC3(CC3)C(=O)N4C)c3c2OCO3)CC1 [Example 408, 7-(9′-cyclopentyl-5′-methyl-6′-oxo-5′,6′,8′,9′-tetrahydrospiro[cyclopropane-1,7′-pyrimido[5,4-b][1,4]diazepine]-2′-ylamino)-N-(1-methyl-4-piperidyl)benzo[1,3]dioxole-4-carboxamide] | < 300 nM

Next, values leading:

IC50 | SMILES
< 300 nM | CCN1CCC(NC(=O)c2ccc(Nc3ncc4c(n3)N(C3CCCCC3)CCC(=O)N4C)c(OC)c2)CC1 [Example 423, 4-[(2-cyclohexyl-6-methyl-5-oxo-2,6,9,11-tetrazabicyclo[5.4.0]undeca-7,9,11-trien-10-yl)amino]-N-(1-ethyl-4-piperidyl)-3-methoxy-benzamide]
< 300 nM | COc1cc(C(=O)NC2CCC(N(C)C)CC2)c(F)cc1Nc1ncc2c(n1)N(C1CCCC1)CC(C)(C)C(=O)N2C (centres unmarked) [Example 372, 4-[(2-cyclopentyl-4,4,6-trimethyl-5-oxo-2,6,9,11-tetrazabicyclo[5.4.0]undeca-7,9,11-trien-10-yl)amino]-N-(4-dimethylaminocyclohexyl)-2-fluoro-5-methoxy-benzamide]
< 300 nM | CCN1CCC(NC(=O)c2cc(F)c(Nc3ncc4c(n3)N(C3CCCC3)CC(C)(C)C(=O)N4C)cc2F)CC1 [Example 355, 4-[(2-cyclopentyl-4,4,6-trimethyl-5-oxo-2,6,9,11-tetrazabicyclo[5.4.0]undeca-7,9,11-trien-10-yl)amino]-N-(1-ethyl-4-piperidyl)-2,5-difluoro-benzamide]
< 300 nM | CN1C(=O)C2(CC2)CN(C2CCCC2)c2nc(Nc3ccc(C(=O)NCCN4CCCC4)cc3Cl)ncc21 [Example 391, 3-chloro-4-(9′-cyclopentyl-5′-methyl-6′-oxo-5′,6′,8′,9′-tetrahydrospiro[cyclopropane-1,7′-pyrimido[5,4-b][1,4]diazepine]-2′-ylamino)-N-(2-pyrrolidin-1-ylethyl)benzamide]
< 300 nM | COc1cc(C(=O)NCCN2CCCC2)c(F)cc1Nc1ncc2c(n1)N(C1CCCC1)CC1(CC1)C(=O)N2C [Example 398, 4-(9′-cyclopentyl-5′-methyl-6′-oxo-5′,6′,8′,9′-tetrahydrospiro[cyclopropane-1,7′-pyrimido[5,4-b][1,4]diazepine]-2′-ylamino)-2-fluoro-5-methoxy-N-(2-pyrrolidin-1-ylethyl)benzamide]
< 300 nM | CN1CCC(NC(=O)c2cc(F)c(Nc3ncc4c(n3)N(C3CCCC3)CC(C)(C)C(=O)N4C)cc2F)CC1 [Example 356, 4-[(2-cyclopentyl-4,4,6-trimethyl-5-oxo-2,6,9,11-tetrazabicyclo[5.4.0]undeca-7,9,11-trien-10-yl)amino]-2,5-difluoro-N-(1-methyl-4-piperidyl)benzamide]
< 300 nM | COc1cc(C(=O)NCC(C)(C)CN(C)C)ccc1Nc1ncc2c(n1)N(C(C)C)CC1(CC1)C(=O)N2C [Example 313, N-(3-(dimethylamino)-2,2-dimethylpropyl)-4-(9′-isopropyl-5′-methyl-6′-oxo-5′,6′,8′,9′-tetrahydrospiro[cyclopropane-1,7′-pyrimido[5,4-b][1,4]diazepine]-2′-ylamino)-3-methoxybenzamide]
< 300 nM | CCN1CCC(NC(=O)c2cc(OC)c(Nc3ncc4c(n3)N(C3CCCC3)CC3(CC3)C(=O)N4C)cc2F)CC1 [Example 407, 4-(9′-cyclopentyl-5′-methyl-6′-oxo-5′,6′,8′,9′-tetrahydrospiro[cyclopropane-1,7′-pyrimido[5,4-b][1,4]diazepine]-2′-ylamino)-N-(1-ethyl-4-piperidyl)-2-fluoro-5-methoxy-benzamide]
< 300 nM | COc1cc(C(=O)NCC2(CN3CCCC3)CC2)c(F)cc1Nc1ncc2c(n1)N(C1CCCCC1)CC1(CC1)C(=O)N2C [Example 445, 4-(9′-cyclohexyl-5′-methyl-6′-oxo-5′,6′,8′,9′-tetrahydrospiro[cyclopropane-1,7′-pyrimido[5,4-b][1,4]diazepine]-2′-ylamino)-2-fluoro-5-methoxy-N-[[1-(pyrrolidin-1-ylmethyl)cyclopropyl]methyl]benzamide]
< 300 nM | COc1cc(C(=O)NCCCN(C)C)ccc1Nc1ncc2c(n1)N(C1CCCC1)CC(C)(C)C(=O)N2C [Example 357, 4-[(2-cyclopentyl-4,4,6-trimethyl-5-oxo-2,6,9,11-tetrazabicyclo[5.4.0]undeca-7,9,11-trien-10-yl)amino]-N-(3-dimethylaminopropyl)-3-methoxy-benzamide]
< 300 nM | COc1cc(C(=O)NCC(C)(C)CN(C)C)ccc1Nc1ncc2c(n1)N(C1CCCC1)CC(C)(C)C(=O)N2C [Example 351, 4-[(2-cyclopentyl-4,4,6-trimethyl-5-oxo-2,6,9,11-tetrazabicyclo[5.4.0]undeca-7,9,11-trien-10-yl)amino]-N-(3-dimethylamino-2,2-dimethyl-propyl)-3-methoxy-benzamide]
< 300 nM | COc1cc(C(=O)NCCN2CCCC2)c(F)cc1Nc1ncc2c(n1)N(C1CCCC1)CCC(=O)N2C [Example 333, 4-[(2-cyclopentyl-6-methyl-5-oxo-2,6,9,11-tetrazabicyclo[5.4.0]undeca-7,9,11-trien-10-yl)amino]-2-fluoro-5-methoxy-N-(2-pyrrolidin-1-ylethyl)benzamide]
